Measurements published in US20240343762A1, “USE OF PROTON PUMP MODULATOR IN PREPARING REAGENT” (SHANGHAI QUIETD BIOTECHNOLOGY CO. LTD., priority 2021, published 2024).

What was measured:
[1] = molecular target: T1, murine ATP6V1B2 1-172aa truncated sequence (Mus musculus, UniProt P62814); test: Co-immunoprecipitation of EGFP-tagged QD202 with Myc-tagged ATP6V1B2 1-172aa truncated sequence in 293 cells; assay type: binding; settings: Myc antibody, immunoblotting
T1 construct: expressed in transfected cells; host or cells: 293 cells
T1 sequence (P62814 1-172): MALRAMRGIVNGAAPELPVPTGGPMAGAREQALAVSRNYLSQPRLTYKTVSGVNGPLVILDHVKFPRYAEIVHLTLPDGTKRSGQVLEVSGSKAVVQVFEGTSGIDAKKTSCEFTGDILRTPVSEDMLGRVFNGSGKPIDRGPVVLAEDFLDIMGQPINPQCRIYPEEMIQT
Text: Expression plasmids including murine ATP6V1B2 full-length sequence, 1-286aa truncated sequence or 1-172aa truncated sequence with a Myc tag are respectively constructed; the amino acid sequence of the murine ATP6V1B2 full-length sequence was as set forth in SEQ ID NO. 8, the amino acid sequence of the murine ATP6V1B21-286aa was as set forth in SEQ ID NO. 10; the amino acid sequence of the murine ATP6V1B21-172aa as set forth in as SEQ ID NO. 11; and these plasmids were respectively called as an ATP6V1B2 full-length expression plasmid, an ATP6V1B21-286aa expression plasmid and an ATP6V1B21-172aa expression plasmid. Meanwhile, a QD202 expression plasmid with an EGFP tag was constructed. […]
Then a Protein G agarose bead was added to be bound to the Myc antibody, so as to precipitate the ATP6V1B2 full-length protein, the 1-286aa truncated sequence or the 1-172aa truncated sequence, and proteins which were bound to one another, and finally the proteins subjected to co-immunoprecipitation was detected by virtue of an immunoblotting method.

[2] = test system: SH-SY5Y cells; test: Rotenone cell model (PD) with immunoblotting of α-synuclein oligomer; assay type: cell-based; settings: 5 μM rotenone, QD202 at 0.1 μM, 0.2 μM, 0.5 μM and 1 μM, 24 hours
Description: The rotenone cell model is a commonly used Parkinson's disease (PD) in vitro cell model.
SH-SY5Y cells are cultured in complete medium composed of high-glucose DMEM and 10% fetal bovine serum, placed in an incubator maintained at 37° C. and 5% carbon dioxide for culture. On the day before the rotenone model is established, cells are passaged from 60 mm dishes to 6-well plates, and QD202 treatment experiments are conducted 24 hours after cell passage.
After 24 hours of SH-SY5Y culture, the rotenone model is established. A mixed solution containing 5 μM rotenone and various concentrations of QD202 (0, 0.1 μM, 0.2 μM, 0.5 μM, 1 μM, 5 μM, 10 μM) is prepared with complete medium. SH-SY5Y cells are removed from the culture medium, the mixed solution is added and mixed well, and incubated in the incubator for 24 hours.
After 24 hours of QD202 treatment, the cells are placed on ice, and 200 μL of cell lysis buffer containing protease inhibitors (25 mM Tris-HCL, 150 mM NaCl, 1 mM EDTA, 1% NP40, 5% Glycerol) is added. The cells are collected into the lysis buffer and the collected samples are rotated and lysed at 4° C. for 30 minutes.
The samples are centrifuged at 4° C. for 10 minutes, and the supernatant is collected. 180 μL of the supernatant is retained and 60 μL of 4×loading buffer is added. […]

[3] = test system: hippocampal CA1 pyramidal neurons; test: Whole-cell patch-clamp recording of spontaneous excitatory postsynaptic current (sEPSC) in hippocampus brain slice; assay type: cell-based, mouse; settings: sEPSC at -70 mV, perfusion for 5 min; 5 μM in Embodiment 3
Description: 0.1-0.15 ml of 20% ethyl carbamate was injected into the abdominal cavity of a C57 mouse of 2 to 3 months old for anesthesia; a head was quickly cut, and brain tissues were stripped and put into artificial cerebrospinal fluid (ACSF) ice-water mixed liquid into which mixed gas (95% O2 and 5% CO2) was introduced in advance, and stood for 2 min; the ACSF included the following components: […] of NaCl, […] of KCl, 0.12 mM of NaH2PO4, 0.25 mM of CaCl2), 0.12 mM of MgCl2, 25 mM of NaHCO3 and 11 mM of glucose. A hippocampus coronal brain slice of 350 μm was cut by a vibration slicer. The hippocampus coronal brain slice was placed into the ACSF at room temperature for more than 30 min for recovery, and then the brain slice was put into a record slot; continuous perfusing was performed at a speed of 2 to 2.5 ml/min by the ACSF into which the mixed gas was introduced; blind-binding sealing was performed on hippocampus CA1 pyramidal neuron under an Olympic BX51 upright microscope; whole-cell patch-clamp was performed by an Axon700B amplifier and a 1550B digital-to-analog converter; spontaneous excitatory postsynaptic current (sEPSC) of the pyramidal neuron was recorded by a voltage clamp under the clamp voltage of −70 mV; after recording for 5 min, synthetic polypeptides such as 5 μM QD202 or QD202 N′-1, C′-1 and C′-2 for 5 min; and then perfusing and flushing were performed for 10 min by the ACSF. The recorded data was analyzed by Minianalysis software. […]

Which results are given for “QD202: polypeptide synthesized according to the amino acid sequence as set forth in SEQ ID NO. 1 (YGRKKRRQRRRSPVDVVCS; QD202)”?
binding to ATP6V1B2 1-172aa truncated sequence by co-immunoprecipitation [1]: only the full-length ATP6V1B2 protein can be combined; increase in α-synuclein oligomer caused by rotenone treatment [2]: dose-dependently reduce; excitatory postsynaptic current amplitude [3]: no influence; release frequency of excitatory postsynaptic current [3]: increasing the release frequency; spontaneous excitatory synaptic transmitter release of hippocampal CA1 neurons [3]: can increase the spontaneous excitatory synaptic transmitter release
